Here are results for 7 compounds from ChEMBL document CHEMBL4414662, “Cytotoxic Kendomycins Containing the Carbacylic Ansa Scaffold from the Marine-Derived Verrucosispora sp. SCSIO 07399” (J Nat Prod, 2019).

pIC50: −log10 of the molar value. ≈ marks a conversion by molar mass, not a printed value.

The subject of one experiment is Bacillus thuringiensis. In words: Antibacterial activity against Bacillus thuringiensis BT01 by CLSI based two-fold serial dilution method. The class given is functional.
The subject of experiment [1] is Staphylococcus aureus. In words: Antibacterial activity against methicillin-resistant Staphylococcus aureus shhs-A1 by CLSI based two-fold serial dilution method. In kind it is functional.
For experiment [2], the system named is Staphylococcus aureus. In words: Antibacterial activity against Staphylococcus aureus ATCC […] by CLSI based two-fold serial dilution method. The class given is functional. The note with it: ATCC 29213.
A further experiment concerns Enterococcus faecalis. The experiment is described as follows: Antimicrobial activity against Enterococcus faecalis ATCC 29212 by CLSI based two-fold serial dilution method. The class given is functional.
In another experiment the test system is Bacillus subtilis. The experiment is described as follows: Antibacterial activity against Bacillus subtilis BS01 by CLSI based two-fold serial dilution method. In kind it is functional.
Experiment [3] has as its system Staphylococcus aureus. The experiment is described as follows: Antibacterial activity against Staphylococcus aureus 745524 by CLSI based two-fold serial dilution method. In kind it is functional.
A further experiment relates to MGC-803. The experiment is described as follows: Antiproliferative activity against human MGC803 cells assessed as reduction in cell viability by MTT assay. The class given is functional, cell-based.
The test system of the next experiment is A549. The experiment is described as follows: Antiproliferative activity against human A549 cells assessed as reduction in cell viability by MTT assay. In kind it is functional, cell-based. In general terms: Formazan colour is commonly taken as a measure of viable cells.
The subject of a further experiment is RKO. In words: Antiproliferative activity against human RKO cells assessed as reduction in cell viability by MTT assay. In kind it is functional, cell-based.
A short description of experiment [4]: Cytotoxicity against HUVEC12 assessed as reduction in cell viability by MTT assay. The note with it: Homo sapiens.
Another experiment deals with L02. In words: Cytotoxicity against human L02 cells assessed as reduction in cell viability by MTT assay. The class given is cell-based.
The next experiment deals with MCF7. The experiment is described as follows: Antiproliferative activity against human MCF7 cells assessed as reduction in cell viability by MTT assay. The class given is functional, cell-based.
Another experiment relates to HeLa. In words: Antiproliferative activity against human HeLa cells assessed as reduction in cell viability by MTT assay. In kind it is functional, cell-based.
For a further experiment, the system named is HepG2. In words: Antiproliferative activity against human HepG2 cells assessed as reduction in cell viability by MTT assay. In kind it is functional, cell-based.

The term MIC denotes the lowest concentration found to suppress growth. Read a low MIC as a more susceptible organism. Usually pIC50 stands for the IC50 on a negative log10 scale, so that one unit is a factor of ten.

With `CC1(C)S[C@@H]2[C@H](NC(=O)[C@H](N)c3ccccc3)C(=O)N2[C@H]1C(=O)O` [AMPICILLIN], the MIC against Bacillus thuringiensis worked out at 32 µg/mL (≈ 91.6 µM); against Staphylococcus aureus [1], 1 µg/mL (≈ 2.86 µM); in the experiment with Staphylococcus aureus [2], 2 µg/mL (≈ 5.72 µM); against Enterococcus faecalis, 2 µg/mL (≈ 5.72 µM); in the experiment on Bacillus subtilis it was 0.25 µg/mL (≈ 0.715 µM).
In the case of `C/C1=C\[C@@H](C)CC[C@H]2O[C@@H](C3=C(O)C(=O)C=C4O[C@](O)(C=C43)[C@@H](C)C[C@H](C)C1)[C@H](C)[C@@H](O)[C@H]2C`, the MIC in the experiment with Bacillus thuringiensis was 1 µg/mL (≈ 2.12 µM); against Staphylococcus aureus [3] it was 1 µg/mL (≈ 2.12 µM); in the experiment with Staphylococcus aureus [1] it was 2 µg/mL (≈ 4.23 µM); with Staphylococcus aureus [2] it was 0.5 µg/mL (≈ 1.06 µM); with Enterococcus faecalis, 2 µg/mL (≈ 4.23 µM); with Bacillus subtilis, 2 µg/mL (≈ 4.23 µM). The pIC50 was 5.48 with MGC-803; 5.10 in the experiment on A549; 5.21 in the experiment on RKO; 5.22 in [4]; 5.13 with L02; 5.29 with MCF7. Also, the pIC50 in the experiment on HeLa is 5.31; in the experiment on HepG2, 4.66.
As for `NC[C@H]1O[C@H](O[C@H]2[C@H](O)[C@@H](O[C@H]3O[C@H](CO)[C@@H](O)[C@H](N)[C@H]3O)[C@H](N)C[C@@H]2N)[C@H](O)[C@@H](O)[C@@H]1O` [KANAMYCIN], the MIC turned out to be 8 µg/mL (≈ 16.5 µM) in the experiment on Bacillus thuringiensis; 64 µg/mL (≈ 132 µM) with Staphylococcus aureus [3]; 64 µg/mL (≈ 132 µM) with Staphylococcus aureus [1]; 16 µg/mL (≈ 33 µM) in the experiment with Staphylococcus aureus [2]; 32 µg/mL (≈ 66 µM) in the experiment with Enterococcus faecalis; 8 µg/mL (≈ 16.5 µM) with Bacillus subtilis.
Consider `CSC1=C2C3=CC(=O)C(O)=C2[C@@H]2O[C@H](CC[C@H](C)/C=C(\C)C[C@@H](C)C[C@H](C)[C@]1(O)O3)[C@H](C)[C@H](O)[C@H]2C`, for which the minimum inhibitory concentration (MIC) against Bacillus thuringiensis was 0.5 µg/mL (≈ 0.964 µM); in the experiment with Staphylococcus aureus [3], 1 µg/mL (≈ 1.93 µM); in the experiment with Staphylococcus aureus [1] it was 1 µg/mL (≈ 1.93 µM); with Staphylococcus aureus [2], 0.5 µg/mL (≈ 0.964 µM); in the experiment on Enterococcus faecalis, 0.5 µg/mL (≈ 0.964 µM); against Bacillus subtilis, 2 µg/mL (≈ 3.86 µM). Besides, the pIC50 with MGC-803 is 5.05; in the experiment on A549, 5.17; in the experiment on RKO, 5.42; in experiment [4] it was 5.22; in the experiment with L02 it was 5.66; in the experiment with MCF7 it was 5.64. Further, the negative-log IC50 (pIC50) in the experiment with HeLa was 5.27; in the experiment with HepG2 it was 5.17.
On to `CN[C@H](CC(C)C)C(=O)N[C@H]1C(=O)N[C@@H](CC(N)=O)C(=O)N[C@H]2C(=O)N[C@H]3C(=O)N[C@H](C(=O)N[C@H](C(=O)O)c4cc(O)cc(O)c4-c4cc3ccc4O)[C@H](O)c3ccc(c(Cl)c3)Oc3cc2cc(c3O[C@@H]2O[C@H](CO)[C@@H](O)[C@H](O)[C@H]2O[C@H]2C[C@](C)(N)[C@H](O)[C@H](C)O2)Oc2ccc(cc2Cl)[C@H]1O` [VANCOMYCIN], for which the MIC with Bacillus thuringiensis worked out at 2 µg/mL (≈ 1.38 µM); with Bacillus subtilis it was 1 µg/mL (≈ 0.69 µM).
With `CC(=O)N[C@@H](CSC1=C2C3=CC(=O)C(O)=C2[C@@H]2O[C@H](CC[C@H](C)/C=C(\C)C[C@@H](C)C[C@H](C)[C@]1(O)O3)[C@H](C)[C@H](O)[C@H]2C)C(=O)O`, the MIC against Bacillus thuringiensis turned out to be 2 µg/mL (≈ 3.16 µM); against Staphylococcus aureus [3] it was 2 µg/mL (≈ 3.16 µM); with Staphylococcus aureus [1], 4 µg/mL (≈ 6.31 µM); against Staphylococcus aureus [2] it was 1 µg/mL (≈ 1.58 µM); in the experiment with Enterococcus faecalis it was 4 µg/mL (≈ 6.31 µM); in the experiment on Bacillus subtilis, 8 µg/mL (≈ 12.6 µM). The pIC50 with MGC-803 is 5.15; with A549, 4.59; in the experiment with RKO, 4.47; in experiment [4], less than 4.30; with L02, 5.21; in the experiment on MCF7 it was 4.89. For the same compound, the pIC50 in the experiment on HeLa was 5.15; with HepG2, 4.36.
As for `COc1cccc2c1C(=O)c1c(O)c3c(c(O)c1C2=O)C[C@@](O)(C(=O)CO)C[C@@H]3O[C@H]1C[C@H](N)[C@H](O)[C@H](C)O1` [DOXORUBICIN], the pIC50 in the experiment with MGC-803 was 5.44; with RKO, 5.82; in experiment [4], 5.14; in the experiment on L02, 5.07; with MCF7, 6.10; in the experiment with HeLa it was 6.10. Further, the pIC50 with HepG2 is 6.15.
